# Reference: patent publication US6974702B2, “Fourier transform mass spectrometry of complex biological samples” (Esperion Therapeutics, Inc., priority 2000, dated 2005)
# Key:
# [1] = HICS-FTMS of plasma from rats treated by oral gavage; format: in vivo; details: rat plasma, 100 mg/kg daily by oral gavage for one week, versus untreated rats
# Method: Three rats were treated daily with 100 mg/kg of 6-(6-hydroxy-5,5-dimethylhexyloxy)-2,2-dimethyl-hexan-1-ol by oral gavage, over the course of one week. 6-(6-hydroxy-5,5-dimethylhexyloxy)-2,2-dimethyl-hexon-1-ol increases HDL-cholesterol and improves glucose utilization in experimental rats (see U.S. application Ser. No. 09/540,738 , filed Mar. 31, 2000). At the end of the week, blood was drawn from each of the three rats, as well as from three control (untreated) rats. The blood was allowed to coagulate, and the plasma was prepared for FTMS by adding a water and methanol solution (49:49:2, water:methanol:acetic acid v:v:v) each of the plasma preparations. The mixture was chilled to precipitate the proteins to the bottom of the tube. Each tube was centrifuged, the supernatant decanted and the sample desalted by adding approximately 100 mg of DOWEX ion exchange resin to each vial and incubating the sample with the resin for approximately 10 minutes. The sample was then centrifuged and the supernatant removed. This solution was then introduced to the FT mass spectrometer.
# [2] = experimental rats; see U.S. application Ser. No. 09/540,738; cited from earlier work
# [3] = system: primary rat hepatocyte cells; assay: FTMS of extracts of primary rat hepatocytes treated with lovastatin; format: cell-based; details: lovastatin 0.03 to 30 μM for 4 hours, normalized against untreated
# Method: A male Sprague-Dawley rat was anesthetized by administration of sodium pentobarbitol by at 50 mg/kg body mass be intraperitoneal injection. In situ perfusion of the liver was performed as follows. The abdomen of the animal was opened, the portal vein was cannulated, and the liver perfused with WOSH solution (149 mM NaCl, 9.2 mM Na HEPES, 1.7 mM fructose, 0.5 mM EGTA, 10 U/ml heparin, pH 7.5) at a flow rate of 30 ml/min for 6 minutes. To digest the liver, DSC solution (6.7 mM KCl, 143 mM NaCl, 9.2 mM Na HEPES, 5 mM CaCl2-2H2O, 1.7 mM fructose, 0.2% BSA, 100 U/ml collagenase Type I, 80 U/ml, 160 BAEE/ml trypsin inhibitor, pH 7.5) was perfused through the liver at a flow rate of 30 ml/min for 6 minutes at a temperature of 37° C. After digestion, cells were dispersed in a solution of DMEM- (DMEM containing 2mM GlutMax-1, 0.2% BSA, 5% FBS, 12 nM insulin, 1.2 μM hydrocortisone) to stop the digestion process. The crude cell suspension was filtered through three layers of stainless steel mesh with pore sizes of 250, 106, and 75 um respectively. Filtered cells were centrifuged at 50×g for two minutes and the supernatant discarded. […]
# All measurements were carried out on a Bruker APEX II FTMS equipped with a 7.0 Tesla magnet. […] The accurate mass data was then analyzed using Tcl/Tk routines, which serially search the mass spectra from each well for chemical composition of metabolic products. […]
SMILES,intensity of FTMS peak of molecular mass approximately 766.4 Daltons [1],intensity of FTMS peak of molecular mass approximately 766.8 Daltons [1],HDL-cholesterol [2],glucose utilization [2],relative intensity of FTMS peak at molecular mass 85.02815 [3],relative intensity of FTMS peak at molecular mass 85.64405 [3]
"CC(C)(CO)CCCCOCCCCC(C)(C)CO [6-(6-hydroxy-5,5-dimethylhexyloxy)-2,2-dimethyl-hexan-1-ol]",reproducibly higher intensities,reproducibly higher intensities,increases,improves,–,–
CC[C@H](C)C(=O)O[C@H]1C[C@@H](C)C=C2C=C[C@H](C)[C@H](CC[C@@H]3C[C@@H](O)CC(=O)O3)[C@H]21 [lovastatin],–,–,–,–,decreasing trend,increasing trend
